Source: PubChem BioAssay (NCI)
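Protocol summary: plate cells (96-well), add compound at 5 concentrations, incubate 48 h, interpolate endpoints linearly. TGI marks complete inhibition of growth.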

Columns and labels:
Test in all cases: inhibition of tumour cell growth, NCI panel, 48 h
[1] = test system: OVCAR-3 ovarian
[2] = test system: COLO 205 colon
[3] = test system: OVCAR-4 ovarian
[4] = test system: T-47D breast
[5] = test system: TK-10 renal
[6] = test system: UO-31 renal
[7] = test system: SF-268 CNS
[8] = test system: HOP-62 NSCLC
[9] = test system: MDA-MB-231 breast
[10] = test system: SK-OV-3 ovarian
[11] = test system: MALME-3M melanoma

Row | SMILES | TGI [1] [µM] | TGI [2] [µM] | TGI [3] [µM] | TGI [4] [µM] | TGI [5] [µM] | TGI [6] [µM] | TGI [7] [µM] | TGI [8] [µM] | TGI [9] [µM] | TGI [10] [µM] | TGI [11] [µM]
1 | NCCCN(CCCCN(CCCN)CCCc1ccccc1)CCCc1ccccc1 | 3.34 | 3.18 | 17.1 | 23.5 | 25.9 | 5.66 | 8.32 | 25.4 | 4.39 | 14.1 | 
2 | CSc1c(C(C)=O)c(O)n(-c2ccc(C)cc2)c(=O)c1C#N | > 100 | > 100 | > 100 | > 100 | > 100 | > 100 | > 100 |  | > 100 | > 100 | > 100
3 | COc1cc2c(oc(=O)c3c4occc4cc(OC)c23)c2cccc(O)c12 | > 100 | > 100 | > 100 |  | > 100 | > 100 | > 100 | > 100 |  | > 100 | > 100
4 | C[N+]1(C)CCCC(C#N)(c2ccccc2)CC1 (centres undefined) |  | > 100 | > 100 | > 100 | > 100 | > 100 | > 100 | > 100 |  | > 100 | > 100
5 | ClC1=NSSC1(Cl)Cl | 64.5 | 30.8 | > 100 |  |  | 78 |  | > 100 | 71.2 |  | > 100
6 | OC12CCC3(OC4CCCCO4)c4ccccc4C3C1c1ccccc12 (centres undefined) |  | > 100 | > 100 |  | > 100 | > 100 | > 100 | > 100 |  | > 100 | > 100
7 | C/C(=C\C(=O)Nc1ccc2n[nH]nc2c1)Nc1ccc2n[nH]nc2c1 | > 100 | > 100 | > 100 |  | > 100 | > 100 | > 100 | > 100 |  | > 100 | > 100
8 | CCOC(=O)c1ccc(N(CCOS(C)(=O)=O)CCOS(C)(=O)=O)cc1 | > 100 | > 100 | > 100 | > 100 | > 100 | 39.3 | > 100 |  | > 100 |  | > 100
9 | CC1OC(OC2C(O)CC(OC3C(O)CC(OC4CCC5(C)C(CCC6C5CCC5(C)C(C7=CC(=O)OC7)C(O)CC65O)C4)OC3C)OC2C)CC(O)C1O (centres undefined) | 0.497 | 0.844 |  | 4.72 | 0.787 | 1.15 | 0.607 | 2.66 |  | 1.31 | 0.816
10 | CNC(=O)OCc1cnc([N+](=O)[O-])n1C | > 100 | > 100 | > 100 |  | > 100 | > 100 | > 100 | > 100 | > 100 |  | > 100
11 | CCOc1ccc(C2=NN(CC)C(=O)C(C3C(=O)N(c4ccccc4)N=C3C)C2)cc1 (centres undefined) | > 100 | > 100 | > 100 |  | > 100 | > 100 | > 100 | > 100 |  | > 100 | > 100
12 | C[C@]12CC[C@H]3[C@@H](CC=C4C[C@@H](O)CC[C@@]43C)[C@@H]1C/C(=C\c1cccnc1)[C@@H]2O |  | > 100 | 58.9 |  | 66.8 | > 100 |  | 29.4 | 57.8 | 34.2 | > 100
13 | C=CCOCC1C2CCC3(OCCO3)C21 (centres undefined) | > 100 | > 100 | > 100 |  | > 100 | 75.2 | > 100 | > 100 | > 100 | > 100 | > 100
14 | COc1cc2c(c(OC)c1OC)C(=O)c1c(O)cc(C)c(OC)c1C2=O | > 100 | > 100 | > 100 |  | > 100 | > 100 | > 100 | > 100 | > 100 |  | > 100
15 | Cc1ccc(C)c2c1C1CCCCC3(OCCCO3)C21O (centres undefined) | > 100 | > 100 | > 100 |  | > 100 | > 100 | > 100 | > 100 |  | > 100 | > 100
16 | CCOC(=O)C(O)(CC1=NC(C(=O)OC)(C(=O)OC)C(c2cccc(C=O)c2)O1)C(=O)OCC (centres undefined) | > 100 | > 100 | > 100 | > 100 | > 100 | > 100 |  | > 100 |  | > 100 | 
17 | CNC(=S)N/N=C/C(C)=N/NC(=S)NC | > 100 | > 100 |  |  | > 100 | > 100 | > 100 | > 100 |  | > 100 | > 100
18 | COCN1C(=O)[C@@H]2CCCN2C(=O)c2ccc(N)cc21 | > 100 | > 100 | > 100 |  | > 100 | > 100 | > 100 | > 100 | > 100 | > 100 | 
